Values joined by “and” are separate entries in the source; they are usually repeats but may differ in a detail not shown here. Identical values can stand only once.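 96-well plates; 48 h exposure; 5 concentrations. Endpoints by linear interpolation between flanking doses. Not reached: highest tested concentration assigned. GI50 is the concentration that inhibits growth by half. Definition used: TGI = concentration required for complete inhibition of growth.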
test system: MDA-MB-468 breast; experiment: NCI tumour cell line growth inhibition, 48 h

How did the GI50 turn out when `Cc1nc2cc(-n3c(-c4ccc(F)cc4)nc4ccccc4c3=O)ccc2n1Cc1ccccc1` was run?
The GI50 was 2 µM.

And the TGI?
The TGI was 4.95 µM.

Which GI50 does the source give for `CC(=O)c1cc2c(c(O)c1C)C(=O)C(=O)c1c(O)cccc1-2` here?
Its GI50 is 0.198 µM.

What about the TGI of the same compound?
The TGI was 0.495 µM.

With `CCCCCCCCCCCC[n+]1c(C)cc(N)c2ccccc21` as the compound, how does the GI50 read?
Its GI50 is 0.206 µM.

What about the TGI of the same compound?
Its TGI is 0.76 µM.

What does the source list for `CN(C)c1ccc2nc3ccc(N)cc3[n+](-c3ccccc3)c2c1`?
GI50: 0.179 µM and 1.74 µM; TGI: 1.54 µM and 7.28 µM

`Cn1cc(C2=C(c3cn(CCSC(=N)N)c4ccccc34)C(=O)NC2=O)c2ccccc21` was tested. Which GI50 did it give?
Its GI50 is 3.19 µM.

And the TGI?
The TGI was 7.12 µM.

How did the GI50 turn out when `CC(C)[C@]12O[C@H]1[C@@H]1O[C@]13[C@]1(O[C@H]1C[C@H]1C4=C(CC[C@@]13C)C(=O)OC4)[C@@H]2OC(=O)CN(C)C` was run?
The GI50 was 0.0183 µM.

And the TGI?
Its TGI is 0.0524 µM.

How did the GI50 turn out when `CN([O-])c1nc(N(C)[O-])nc(N2CCOCC2)n1.CN([O-])c1nc(N(C)[OH2+])nc(N2CCOCC2)n1.[Fe+3]` was run?
Its GI50 is 45.4 µM.

And the TGI?
The TGI was over 100 µM.

Which GI50 does the source give for `COC(=O)[C@@H](C[C@H](Cc1ccccc1)NC(=O)c1csc([C@@H](C[C@H](C(C)C)N(C)C(=O)[C@@H](NC(=O)[C@H]2CCCCN2C)C(C)C)OC(C)=O)n1)NC(=O)OCc1ccccc1` here?
Its GI50 is under 0.000833 µM.

What about the TGI of the same compound?
Its TGI is under 0.000833 µM.

For `CC(Nc1c(C#N)cnc2ccc(-c3cnc(N)nc3)cc12)c1ccccc1` (stereo unspecified), which GI50 is on record?
Its GI50 is 0.396 µM.

What about the TGI of the same compound?
The TGI was 3.34 µM.

`COc1cccc2c1-c1ccccc1C2=O` was tested. Which GI50 did it give?
The GI50 was 0.346 µM.

What about the TGI of the same compound?
The TGI was 21.3 µM.

Which results are given for `CN1CCN(c2ccc3nc(-c4c5cccccc-5[nH]c4=O)[nH]c3c2)CC1`?
GI50: 15.4 µM; TGI: 34.2 µM

`COc1ccc(/C=C/C(=O)c2cccc(B(O)O)c2)cc1O` was tested. Which GI50 did it give?
Its GI50 is 2.86 µM.

What about the TGI of the same compound?
The TGI was 21 µM.

Which results are given for `O=C(Nc1cccc(-c2cccc(F)c2)c1)C1CCN(Cc2cccc3cccnc23)CC1`?
GI50: 1.76 µM; TGI: 3.46 µM

`CC(=O)OC[C@]1(C)C=C2C(=O)[C@](C)(O)C3(CC3)C(C)=C2[C@H]1OC(=O)N(C)CCN(C)C(=O)OC(C)(C)C` was tested. Which GI50 did it give?
Its GI50 is 0.519 µM.

What about the TGI of the same compound?
The TGI was 1.2 µM.

How did the GI50 turn out when `COc1cccc(/C=N/Nc2ncnc3c2cnn3-c2cccc(OC)c2)c1` was run?
Its GI50 is over 25 µM.

What about the TGI of the same compound?
Its TGI is over 25 µM.

What does the source list for `Cc1c(C(N)=O)sc2c1c(=O)n(Cc1ccccc1)c1nnc(SCC(=O)Nc3ccc(Cl)cc3)n21`?
GI50: 2.64 µM; TGI: 6.88 µM

For `O=C1OCC2=C1C(c1cccc(Cl)c1)c1cc3c(cc1N2CCO)OCO3` (stereo unspecified), which GI50 is on record?
Its GI50 is 0.246 µM.

What does the source list for `NC(=O)c1cccc(N2Cc3ccccc3OC3=C2C(=O)c2c(O)ccc(O)c2C3=O)c1`?
GI50: 0.195 µM; TGI: 0.425 µM

For `C[C@@H](O)[C@H]1C(=O)N2C(C(=O)O)=C(SCCN=CN)C[C@H]12`, which GI50 is on record?
The GI50 was 1.1 µM.

And the TGI?
Its TGI is 2.73 µM.

With `C1CN1c1nc(N2CC2)nc(N2CC2)n1` as the compound, how does the GI50 read?
The GI50 was 4.83 µM.

What about the TGI of the same compound?
The TGI was 19.2 µM.

Which GI50 does the source give for `CO[C@H](C(=O)[C@@H](O)[C@@H](C)O)[C@@H]1Cc2cc3cc(O[C@H]4C[C@@H](O[C@H]5C[C@@H](O)[C@H](O)C(C)O5)[C@H](O)C(C)(O)O4)cc(O)c3c(O)c2C(=O)[C@H]1O[C@H]1C[C@@H](O[C@H]2C[C@@H](O[C@H]3C[C@@H](OC)[C@H](O)C(C)O3)[C@@H](O)C(C)O2)[C@H](O)C(C)O1` (stereo partly specified) here?
The GI50 was 2.93 µM.

What about the TGI of the same compound?
Its TGI is over 16.8 µM.

What does the source list for `COc1ccc(/C=N/C2=C(C#N)C(c3ccccc3)c3c(ccc4ccccc34)O2)cc1` (stereo unspecified)?
GI50: 1.08 µM; TGI: 20.5 µM

With `Cc1cc(Nc2cccc(F)c2)nc(NCc2ccccc2)n1` as the compound, how does the GI50 read?
Its GI50 is 2.17 µM.

And the TGI?
The TGI was 7.75 µM.

How did the GI50 turn out when `O=C(N/N=C\c1c(O)ccc2ccccc12)C1CC1` was run?
Its GI50 is 3.16 µM.

And the TGI?
Its TGI is 8.68 µM.

For `Cc1ccc(-c2cc(C(=O)N3N=C(c4ccc(N)cc4)CC3c3ccc(Cl)cc3)c3ccccc3n2)cc1` (stereo unspecified), which GI50 is on record?
Its GI50 is 4.91 µM.

What about the TGI of the same compound?
The TGI was over 100 µM.

Which GI50 does the source give for `O[N+]1=CC=CCC1=S.On1ccccc1=S.[Zn]` here?
Its GI50 is 0.584 µM.

And the TGI?
Its TGI is 1.6 µM.

For `Nc1nc(N)c2cc(CNc3ccc(C(=O)NC(CC(=O)O)C(=O)O)cc3)ccc2n1` (stereo unspecified), which GI50 is on record?
The GI50 was 0.941 µM.

For `FC(F)(F)c1cccc(Nc2nc3ccccc3nc2Nc2cccc(C(F)(F)F)c2)c1`, which GI50 is on record?
The GI50 was 1.53 µM.

And the TGI?
Its TGI is 3.56 µM.

How did the GI50 turn out when `Cc1c2cnccc2c(C)c2c1c1cc(CO)ccc1n2C` was run?
The GI50 was 0.151 µM.

What about the TGI of the same compound?
The TGI was 0.42 µM.

Which GI50 does the source give for `CCCCCCNC(=O)Nc1ccc2cc3ccc(NC(=O)NCCCCCC)cc3nc2c1` here?
The GI50 was 1.62 µM.

What about the TGI of the same compound?
The TGI was 3.73 µM.

With `O=C1c2ccccc2C(=O)c2c(N=Nc3[nH]c(=S)[nH]c3O)cccc21` as the compound, how does the GI50 read?
The GI50 was 0.44 µM.

What about the TGI of the same compound?
Its TGI is 9.34 µM.

With `Clc1ccc(/C=C2\CCCC3C2=Nc2ccccc2NC3c2ccc(Cl)cc2)cc1` (stereo unspecified) as the compound, how does the GI50 read?
Its GI50 is 1.89 µM.

And the TGI?
The TGI was 4.6 µM.

For `O=C(C[Si](CC(=O)c1cccc(C(F)(F)F)c1)CC(=O)c1cccc(C(F)(F)F)c1)c1cccc(C(F)(F)F)c1`, which GI50 is on record?
The GI50 was 2.24 µM.

And the TGI?
Its TGI is 6.71 µM.

For `COc1ccc2nc3cc(Cl)ccc3c(NCCCCCN3CCCCC3)c2c1`, which GI50 is on record?
The GI50 was 1.21 µM.

And the TGI?
Its TGI is 2.58 µM.

What does the source list for `CCN(CC)c1ccc(/C=C2\SC(=O)C(Nc3nnc(-c4cccnc4SCc4ccccc4)o3)C2=O)cc1` (stereo unspecified)?
GI50: 3.23 µM; TGI: 11.8 µM

With `O=C(O)CCCn1c(SCc2c(Cl)cccc2Cl)nc2ccsc2c1=O` as the compound, how does the GI50 read?
Its GI50 is 0.24 µM.

And the TGI?
Its TGI is over 100 µM.

`Cn1cc(C2=C(c3cn(CCCO)c4ccccc34)C(=O)NC2=O)c2ccccc21` was tested. Which GI50 did it give?
The GI50 was 2.25 µM.

And the TGI?
The TGI was 18.4 µM.

What does the source list for `COC(=O)C(N)CSC(c1ccccc1)(c1ccccc1)c1ccccc1` (stereo unspecified)?
GI50: 0.336 µM; TGI: 2.74 µM

What does the source list for `COc1ccc(S(=O)(=O)Nc2cc(/C=C\c3cc(OC)c(OC)c(OC)c3)cc(OC)c2OC)cc1`?
GI50: 0.042 µM; TGI: > 100 µM
